Measured values reported in article PMC11191095, “QSAR Reveals Decreased Lipophilicity of Polar Residues Determines the Selectivity of Antimicrobial Peptide Activity” (ACS Omega, 2024).
Where a SMILES comes first, the peptide text is derived from it.

What was measured:
[1] = tested on: S. aureus (MSSA) ATCC 9144; test: microbe, parasite or virus in culture; type: cell-based, Staphylococcus aureus; conditions: ATCC 9144, 20 h
In short: (§1)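 Peptides 128→2 μg/mL, 2-fold series; inoculum ~5 × 10^5 CFU/mL from overnight culture (OD600 0.01, mixed 1:1). MHB non-cation-adjusted for bacteria, RPMI 1640 + 2% glucose for fungi. 37 °C, 20 h, OD600. MIC50/MIC90 at 50%/90% inhibition; n ≥ 3.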

A. baumannii ATCC 17978 = test: microbe, parasite or virus in culture; type: cell-based, Acinetobacter baumannii; conditions: ATCC 17978, 20 h
In short: as §1

K. pneumoniae M6 = test: microbe, parasite or virus in culture; type: cell-based, Klebsiella pneumoniae; conditions: M6, 20 h
In short: as §1

C. krusei NCPF 3876 = test: microbe, parasite or virus in culture; type: cell-based; conditions: NCPF 3876, 20 h
In short: as §1

C. glabrata NCPF 8018 = test: microbe, parasite or virus in culture; type: cell-based; conditions: NCPF 8018, 20 h
In short: as §1

C. albicans NCPF 3281 = test: microbe, parasite or virus in culture; type: cell-based; conditions: NCPF 3281, 20 h
In short: as §1

C. tropicalis NCPF 8760 = test: microbe, parasite or virus in culture; type: cell-based; conditions: NCPF 8760, 20 h
In short: as §1

[2] = tested on: C. parapsilosis NCPF 3209; test: microbe, parasite or virus in culture; type: cell-based; conditions: NCPF 3209, 20 h
In short: as §1

C. auris TDG 1912 = test: microbe, parasite or virus in culture; type: cell-based, Candida auris; conditions: TDG 1912, 20 h
In short: as §1

E. coli NCTC 12923 = test: microbe, parasite or virus in culture; type: cell-based, Escherichia coli; conditions: NCTC 12923, 20 h
In short: as §1

E. coli LEC001 = test: microbe, parasite or virus in culture; type: cell-based, Escherichia coli; conditions: LEC001, 20 h
In short: as §1

human erythrocytes = test: In vitro hemolytic activity; type: cell-based; conditions: 1 h
Description: Potential erythrocyte hemolysis was tested by incubating serial dilutions of the AMPs in PBS with freshly collected erythrocytes at a ratio of 1:1 in 96-well polypropylene V-shape plates for 1 h at 37 °C. Control wells were treated with 0.1% Triton-X-100 to ensure complete lysis or PBS-only to represent no lysis. The erythrocytes were collected by centrifugation and the OD550 of the supernatant was measured using a plate reader. The percentage hemolysis was calculated as [drawing 1] 1 where Apeptide is the absorbance value of erythrocytes exposed to a known peptide concentration, Agrowth control is the absorbance of erythrocytes exposed to 0.1% Triton-X-100 and Ablank is the absorbance of erythrocytes exposed to the PBS. The concentrations at which a peptide caused 10% (HC10) and 50% (HC50) hemolysis was determined from the dose response curves.

SMILES: CSCC[C@H](NC(=O)[C@H](CCSC)NC(=O)[C@H](CCCCN)NC(=O)CNC(=O)[C@@H](NC(=O)[C@@H](NC(=O)[C@H](CCCCN)NC(=O)[C@H](CC(C)C)NC(=O)CNC(=O)[C@H](Cc1ccccc1)NC(=O)[C@H](CCCCN)NC(=O)[C@H](Cc1ccccc1)NC(=O)[C@H](C)NC(=O)[C@H](CCCCN)NC(=O)CNC(=O)[C@H](CC(C)C)NC(=O)[C@H](CC(C)C)NC(=O)[C@H](CO)NC(=O)CNC(=O)[C@H](CC(C)C)NC(=O)CN)[C@@H](C)O)C(C)C)C(=O)NCC(=O)NCC(=O)N[C@@H](C)C(=O)N1CCC[C@H]1C(=O)N[C@@H](CCCNC(=N)N)C(=O)N[C@@H](CCC(=O)O)C(=O)N[C@@H](CCC(N)=O)C(=O)O [CPF-MW1] (H-GLGSLLGKAFKFGLKTVGKMMGGAPREQ-OH)
- Modal MIC [1]: 1.4 µM
- Modal MIC (A. baumannii ATCC 17978): 1.4 µM
- Modal MIC (K. pneumoniae M6): 5.4 µM
- Modal MIC50 (C. krusei NCPF 3876): 10.8 µM
- Modal MIC90 (C. krusei NCPF 3876): 10.8 µM
- Modal MIC50 (C. glabrata NCPF 8018): > 43.1 µM
- Modal MIC90 (C. glabrata NCPF 8018): > 43.1 µM
- Modal MIC50 (C. albicans NCPF 3281): > 43.1 µM
- Modal MIC90 (C. albicans NCPF 3281): > 43.1 µM
- Modal MIC50 (C. tropicalis NCPF 8760): 21.6 µM
- Modal MIC90 (C. tropicalis NCPF 8760): 21.6 µM
- Modal MIC50 [2]: > 43.1 µM
- Modal MIC90 [2]: > 43.1 µM
- Modal MIC50 (C. auris TDG 1912): > 43.1 µM
- Modal MIC90 (C. auris TDG 1912): > 43.1 µM
- Modal MIC (E. coli NCTC 12923): 2.7 µM
- Modal MIC (E. coli LEC001): 2.7 µM
- HC10 (concentration causing 10% hemolysis) (human erythrocytes; human erythrocytes in PBS, 37 °C, OD550, from dose response curves): 214 µg/mL
- % hemolysis (human erythrocytes; red cells of human, 256 μg/mL): more than 10%
